Data from paper PMC10291552, “Computational Design, Synthesis, and Biological Evaluation of Diimidazole Analogues Endowed with Dual PCSK9/HMG-CoAR-Inhibiting Activity” (Journal of Medicinal Chemistry, 2023).
“Also recorded” adds a separate entry of the source.

How the values were obtained:
[1] = target: T1, HMG-CoAR (catalytic domain) (Homo sapiens, UniProt P04035); experiment: HMG-CoAR activity assay (Sigma kit, NADPH oxidation at 340 nm); type: biochemical; settings: 10–500 μM tested, 37 °C
T1 construct: and finally, HMG-CoAR (catalytic domain) (2 μL); purchased Sigma Aldrich
T1 sequence (P04035 426-888 limits assumed): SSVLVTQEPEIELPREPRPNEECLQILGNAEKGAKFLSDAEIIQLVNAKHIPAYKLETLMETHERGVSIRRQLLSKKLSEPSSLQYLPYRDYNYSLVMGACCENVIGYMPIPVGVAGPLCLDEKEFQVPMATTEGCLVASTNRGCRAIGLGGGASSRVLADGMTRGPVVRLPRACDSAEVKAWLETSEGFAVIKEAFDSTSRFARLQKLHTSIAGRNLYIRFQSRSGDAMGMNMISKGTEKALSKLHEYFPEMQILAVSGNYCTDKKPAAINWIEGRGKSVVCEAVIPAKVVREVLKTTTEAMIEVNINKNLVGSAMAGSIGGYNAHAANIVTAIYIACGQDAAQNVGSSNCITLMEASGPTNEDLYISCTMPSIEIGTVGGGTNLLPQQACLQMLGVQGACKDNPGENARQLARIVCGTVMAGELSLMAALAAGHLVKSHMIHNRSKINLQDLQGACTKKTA
Description: The experiments were carried out following the manufacturer’s instructions and optimized protocol.[43] The assay buffer, NADPH, substrate solution, and HMG-CoAR were provided in the HMG-CoAR Assay Kit (Sigma Aldrich SRL, Milan, Italy). The experiments were carried out following the manufacturer’s instructions at 37 °C. In particular, each reaction (200 μL) was prepared adding the reagents in the following order: 1× assay buffer, a 10–500 μM dose of sonicated Dim analogues or vehicle (C), NADPH (4 μL), the substrate solution (12 μL), and finally, HMG-CoAR (catalytic domain) (2 μL). Subsequently, the samples were mixed, and the absorbance at 340 nm was read by a microplate reader (Synergy H1, Winooski, VT, USA) at times of 0 and 10 min. The HMGCoAR-dependent oxidation of NADPH and the inhibition properties of the peptides were measured by absorbance reduction, which is directly proportional to enzyme activity.

platelet-rich plasma = experiment: Platelet aggregation by light transmission aggregometry (PCSK9-potentiated, epinephrine-induced); type: cell-based, human; settings: 10 nM preincubated with PCSK9 5 μg/mL; epinephrine 0.16 μM; n = 5 healthy donors
Description: Whole blood (WB) was drawn with a 19-gauge needle without venous stasis into citrate (1/10 volume of 0.129 M sodium citrate), discarding the first 4 mL. Platelet-rich plasma (PRP) was obtained by centrifuging whole blood for 10 min at 100g without breaks at room temperature as previously described.[44]
Platelet function was assessed by light transmission aggregometry using PAP-8 aggregometer (BioData). Lag time and area under the curve (AUC) were used as the main parameters describing the kinetic of platelet aggregation as previously described.[3] Briefly, PRP was preincubated with PCSK9 (5 μg/mL, 2 min at 37 °C) followed by epinephrine (0.16 μM) stimulation. To test the effect of Dim16 on PCSK9-dependent platelet aggregation, PCSK9 was preincubated with Dim16 (10 nM) for 15 min at room temperature and then added to PRP.

Question: With CNCCCCCn1c(-c2ncc(-c3ccc4ccccc4c3)n2CCCC(C)(C)C)cnc1I [Dim16, 5-(1-(4,4-Dimethylpentyl)-2′-iodo-5-(naphthalen-2-yl)-1H,3′H-[2,4′-biimidazol]-3′-yl)-N-methylpentan-1-amine] as the compound, how does the IC50 [1] read?
Answer: 147 ± 75.1 µM

Question: And the “effect on PCSK9 potentiation of platelet aggregation (lag time, AUC)” value (platelet-rich plasma)?
Answer: significantly prevented

Question: Which “HMG-CoAR activity IC50” value [1] does the source give for C#Cc1ncc(-c2ncc(-c3ccc4ccccc4c3)n2CCCC(C)(C)C)n1CCCCCNC [Dim3, 5-(1-(4,4-Dimethylpentyl)-2′-ethynyl-5-(naphthalen-2-yl)-1H,3′H-[2,4′-biimidazol]-3′-yl)-N-methylpentan-1-amine] here?
Answer: no in vitro inhibitory activity; also recorded: not active
